# Values quoted from earlier work in US20050255458A1, “Drug discovery assays based on the biology of chronic disease” (priority 2002, published 2005).
# Counter-ions that a name gives are not always drawn. Like-named read-outs stand apart in the source and are kept apart here.
# What was measured:
# ERK1 and ERK2 = details: cited from earlier work; for MAPK activation: Wen 1996, Rao 1994
# AT1-receptor = target: T1, AT1-receptor (Oryctolagus cuniculus, UniProt P34976); details: cited from earlier work
# T1 construct: from tissue; host or cells: whole animal: Watanabe and New Zealand White rabbits
# T1 sequence (P34976 1-359): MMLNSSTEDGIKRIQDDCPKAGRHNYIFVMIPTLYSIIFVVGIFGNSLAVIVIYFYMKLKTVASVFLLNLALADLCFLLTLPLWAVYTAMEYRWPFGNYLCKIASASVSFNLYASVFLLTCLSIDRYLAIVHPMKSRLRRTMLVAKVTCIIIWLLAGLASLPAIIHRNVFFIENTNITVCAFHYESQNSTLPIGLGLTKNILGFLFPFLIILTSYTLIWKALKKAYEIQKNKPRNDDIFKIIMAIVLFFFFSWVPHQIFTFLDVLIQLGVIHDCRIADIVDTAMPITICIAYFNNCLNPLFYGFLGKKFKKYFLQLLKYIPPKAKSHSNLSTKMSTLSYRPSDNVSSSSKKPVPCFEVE
# metallothionein (MT) = details: OC15 EC, OC15 END cells; cited from earlier work
# [1] = cited from earlier work
# GABP = details: cited from earlier work; for GABP DNA binding activity, treated nuclear extracts: 3T3 nuclear extracts, DTT on extracts of DEM-treated cells, GSSG 5 mM; for GABP DNA binding activity (EMSA): 3T3 cells treated 2 h, single and double N-box probes
# TF [2] = details: cited from earlier work
# apo(a) transgenic mice = details: 12 weeks; cited from earlier work
# [3] = test system: ocular melanoma cell lines; details: cited from earlier work
# ERK [4] = details: cited from earlier work
# AR gene = details: LNCaP; cited from earlier work
# papilla cells = details: cited from earlier work
# [5] = test system: hair follicles (onset of anagen); details: cited from earlier work; for delay in hair regrowth: topical 10 nmol twice weekly, female CD-1 mice
# anagen hair follicles = details: Kondo 1990; cited from earlier work
# ERK1/2 = details: cited studies, various cells; cited from earlier work
# AChRδ and AChRε genes = details: cited from earlier work
# ERK [6] = details: Jurkat cells; cited from earlier work
# TF [7] = details: dose-dependent; cited from earlier work
# Elk-1 = details: Peterziel 1999; cited from earlier work
# TF antigen = details: starting on day 3, significant on day 28; cited from earlier work
# TF [8] = details: cited from earlier work; remark: listed apart in the source
# NOD mice = details: mouse, in vivo; cited from earlier work
# double N-box-TATA-Luc = details: cited from earlier work; for decrease in luciferase expression: double N-box-TATA-Luc
# 20-3 cells = details: cited from earlier work
# apoE(−/−) mice = details: 48 hours post injection; cited from earlier work
# fibronectin = details: cited from earlier work
compound,measurement,setting,value
CCCCC[C@H](O)/C=C/C=C\C/C=C\C/C=C\CCCC(=O)O [15-HETE],MAPK activation,ERK1 and ERK2,activation of MAPK
CCCCc1cc(C(=O)OC)cc(=O)n1Cc1ccc(-c2ccccc2-c2nnn[nH]2)cc1F [Bay 10-6734],fat-stained area in the aorta,"AT1-receptor; 25 mg/kg/day, high-cholesterol diet",5.3±1.4%
same,% of macrophage stained area/total plaque cross sectional area,AT1-receptor; 25 mg/kg/day,1±0.2%
same,cholesterol levels,AT1-receptor; hyperlipidemic or control animals,did not change the cholesterol levels
CCC(=O)[O-].[Na+] [sodium propionate],MT mRNA levels,metallothionein (MT),no effect
CC(=O)[O-].[Na+] [sodium acetate],MT mRNA levels,metallothionein (MT),no effect
"CN(N=O)C(=O)N[C@H]1C(O)O[C@H](CO)[C@@H](O)[C@@H]1O (mixture of isomers) [STZ, streptozotocin]",increase in ratio of liver weight to body weight,[1]; 8 days after injection,12%
same,hepatocyte mitosis,[1]; 8 days,300 % of normal
same,increase in ratio of liver weight to body weight,[1]; 30 days,44%
same,hepatocyte mitosis,[1]; 90 days,25 % of normal
oxidized glutathione [GSSG],"GABP DNA binding activity, treated nuclear extracts",GABP,nearly abolished GABP DNA binding
"CC(=O)N[C@@H](CS)C(=O)O [NAC, N-Acetylcysteine]",TF activity,"TF [2]; cells incubated with AGE-alb, 30 mmol/L",concentration dependent inhibition of TF activity
same,AGE-alb induced TF mRNA,TF [2],almost completely suppressed
same,GABP DNA binding activity (EMSA),GABP,prevented
CC/C(=C(\c1ccccc1)c1ccc(OCCN(C)C)cc1)c1ccccc1 [tamoxifen],decrease of area of focal apo(a) accumulation,apo(a) transgenic mice,97%
same,decrease of average level of apo(a) in the vessel wall,apo(a) transgenic mice,69%
same,decrease of lesion area,apo(a) transgenic mice,92%
same,decrease of number of lipid lesions,apo(a) transgenic mice,80%
same,cell attachment to plates coated with fibronectin and other matrix proteins,[3],significant inhibition of cell attachment
C[C@]12CC[C@H]3[C@@H](CCC4=CC(=O)CC[C@@]43C)[C@@H]1CC[C@@H]2O [Testosterone],Effect on [ERK^phos],ERK [4]; SW-13 human adrenal carcinoma,↑[ERK^phos]
same,Effect on [mRNAAR],AR gene,↓[mRNAAR]
same,papilla cell proliferation,"papilla cells; 345 nM, 14 days",significantly decreased papilla cell proliferation
same,dermal papilla cell proliferation,"papilla cells; 10^−10 to 10^−7 M, alone or co-cultured (Obana 1997)",no effect
same,concentrations with no significant effect on papilla cell proliferation,papilla cells; Kiesewetter 1993,lower than 173 nM
same,delay in hair regrowth,[5],small delay
same,growth of isolated hair follicles,anagen hair follicles,growth inhibition
heregulin,phosphorylation of ERK1/2,ERK1/2,phosphorylation of ERK1/2
same,increase in GABPα protein level,"AChRδ and AChRε genes; Western blot, treated vs untreated cells",2 fold
same,phosphorylation of GABPα and GABPβ,AChRδ and AChRε genes; chick primary myotubes,increased phosphorylation
same,transcription of AChRδ and AChRε genes,AChRδ and AChRε genes,increased transcription
same,transcription of utrophin,AChRδ and AChRε genes,stimulated transcription
CCCCC/C=C\C[C@H](O)/C=C/C=C\C/C=C\CCCC(=O)O [12-HETE],MAPK activation,ERK1 and ERK2,activation of MAPK
C[C@H](CCC(=O)O)C[C@H](C)C[C@H](C)C(=O)/C=C(\O)[C@H](C)C[C@H](C)C/C=C/[C@@H](C)[C@@H](O)[C@@H](C)[C@@H](O)C[C@@H]1CC[C@@](C)([C@H]2CC[C@@](C)([C@@H](C)O)O2)O1 [ionomycin],cell attachment to plates coated with fibronectin and other matrix proteins,[3],Significant inhibition
same,ERK phosphorylation,ERK [6],increased ERK phosphorylation
"O=C(O)CCC/C=C\C/C=C\C/C=C\C/C=C\CCCCCO [20-HETE, 20-hydroxyeicosatetraenoic acid]",ERK1 and ERK2 activation,"ERK1 and ERK2; 0.25 μM, 10 min",activated ERK1 and ERK2
C[C@]12CC[C@@H]3c4ccc(O)cc4CC[C@H]3[C@@H]1CC[C@@H]2O [17β-estradiol],delay in hair regrowth,[5],indefinite delay
same,hair growth,[5]; topical application (Chanda 2000),decreased hair growth
CN(CC(=O)NO)C(=O)[C@@H]1CCCC[C@@H]1C(=O)O [idrapril],TF activity,TF [7],decreased TF activity
CC(C)(O)C(=O)Nc1ccc([N+](=O)[O-])c(C(F)(F)F)c1 [hydroxyflutamide],Elk-1 transcription activity,Elk-1,increase in Elk-1 transcription activity
CCCCc1nc(Cl)c(CO)n1Cc1ccc(-c2ccccc2-c2nn[nH]n2)cc1 [losartan],plasma TF antigen levels,TF antigen,negative effect on plasma TF antigen levels
vitamin E,effect on LPS induced TF expression,TF [8],inhibited the LPS induced expression
same,effect on Cu^+2 induced procoagulant activity,"TF [8]; probucol 20, vitamin E 50, BHT 50, U74389G 20 μmol/L",inhibited the Cu^+2 induced procoagulant activity
same,insulitis and diabetes,NOD mice,decreased insulitis and delayed diabetes
CC(O)(CS(=O)(=O)c1ccc(F)cc1)C(=O)Nc1ccc(C#N)c(C(F)(F)F)c1 (stereo not shown) [casodex],Elk-1 transcription activity,Elk-1,increase in Elk-1 transcription activity
"CCOC(=O)/C=C\C(=O)OCC [DEM, diethyl maleate]",GABP DNA binding activity (EMSA),GABP,decreased formation
same,luciferase expression from C/EBP-TA-Luc,double N-box-TATA-Luc; 6 or 8 h treatment,no effect
same,decrease in luciferase expression,double N-box-TATA-Luc; 6 h,28%
same,decrease in luciferase expression,double N-box-TATA-Luc; 8 h,62%
NC(=O)c1cccnc1 [nicotinamide],insulitis and diabetes,NOD mice,decreased insulitis and delayed diabetes
O=C(O)CCCC[C@@H]1CCSS1 (racemic) [lipoic acid],insulitis and diabetes,NOD mice,decreased insulitis and delayed diabetes
TGFβ1: transforming growth factor-β1,labeling index after treatment,"20-3 cells; 5 ng/ml, 72 h, permissive temperature (from 95%)",80%
same,labeling index after treatment,20-3 cells; 72 h non-permissive then 24 h permissive (from 60%),below 10%
same,labeling index after treatment,20-3 cells; non-permissive temperature (from 20%),less than 5%
"EGF: EGF, an ERK agent",Effect on [ERK^phos],ERK [4]; DU145,↑[ERK^Phos]
same,Effect on [ERK^phos],ERK [4]; LNCaP,↑[ERK^phos]
same,Effect on [ERK^phos],ERK [4]; PC-3,↑[ERK^phos]
same,Elk-1 transcription activity,Elk-1,Elk-1 activation
same,Effect on [mRNAAR],AR gene,↓[mRNAAR]
"O[C@H](CS)[C@H](O)CS (racemic) [DTT, dithiothreitol]","GABP DNA binding activity, treated nuclear extracts",GABP,restored GABP binding activity
"CCCCCCCCCCCCCCCC(=O)OC[C@H](COP(=O)([O-])OCC[N+](C)(C)C)OC(=O)CCCCCCCCCCCCCCC [DPPC, dipalmitoylphosphatidylcholine]",lipid content of aortic sinus,apoE(−/−) mice,18.1±4.7 % of plaque area
same,macrophage content of aortic sinus,apoE(−/−) mice,9.3±5.8 % of plaque area
CCNc1cccnc1N1CCN(CC2(C)CCc3c(C)c(O)c(C)c(C)c3O2)CC1.Cl (stereo not shown) [U78518F],insulitis and diabetes,NOD mice,decreased insulitis and delayed diabetes
NCCCCCC(=O)O [ε-ACA],Lp(a) binding to fibronectin,fibronectin,not effective against Lp(a) binding to fibronectin
same,binding of plasminogen to fibronectin,fibronectin,inhibited binding of plasminogen to fibronectin
